Assay results reported in article PMC12584752, “Covalent fragment screening to inhibit the E3 ligase activity of bacterial NEL enzymes SspH1 and SspH2” (RSC Chemical Biology, 2025).

Columns and labels:
SspH1 (161–700) = SspH1 (161–700) (Salmonella typhimurium, UniProt D0ZVG2); experiment: Substrate (PKN1) ubiquitination assay; assay type: biochemical; design: SspH1 (5 μM, 161–700) was prelabelled at 350 rpm, RT for 18 hours; His-tag (N, cleaved yes); made in house; host or cells: E. coli BL21; conditions: SspH1 pre-labelled with compound overnight at RT; 0–30 minutes
Sequence of SspH1 (161–700) (D0ZVG2 161-700): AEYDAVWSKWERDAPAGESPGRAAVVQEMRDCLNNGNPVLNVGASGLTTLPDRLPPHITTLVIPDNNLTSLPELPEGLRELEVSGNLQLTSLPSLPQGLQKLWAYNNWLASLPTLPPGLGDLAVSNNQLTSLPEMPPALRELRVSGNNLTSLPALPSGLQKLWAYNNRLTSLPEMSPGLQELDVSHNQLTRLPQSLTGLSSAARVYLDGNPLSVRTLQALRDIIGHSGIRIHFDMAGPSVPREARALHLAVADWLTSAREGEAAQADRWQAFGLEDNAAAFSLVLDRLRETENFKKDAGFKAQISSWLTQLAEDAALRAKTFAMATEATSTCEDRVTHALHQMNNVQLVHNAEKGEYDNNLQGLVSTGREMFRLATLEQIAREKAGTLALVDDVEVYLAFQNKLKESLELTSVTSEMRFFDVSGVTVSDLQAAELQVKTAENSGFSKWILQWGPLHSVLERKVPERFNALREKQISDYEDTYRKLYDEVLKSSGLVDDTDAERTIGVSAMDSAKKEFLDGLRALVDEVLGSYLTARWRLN
Protocol: Fig. 4 SspH1 in vitro inhibition with compounds 6 and 7. (A) Discharge assay schematic; (B) E2–Ub discharge time course assay with SspH1 pre-treated with either DMSO or compounds 6 or 7. UbcH5A–Ub-cy3 (1 μM) was incubated at RT for 0–30 minutes with SspH1 (residues 161–700, 50 nM) which had been pre-labelled with 6 or 7 at RT overnight. (C) Substrate ubiquitination assay schematic; (D) PKN1 ubiquitination time course assay with SspH1 pre-treated with either DMSO or compounds 6 or 7. A reaction of UBA1 (0.1 μM), UbcH5A (2 μM), ubiquitin (20 μM), PKN1 HR1b (2 μM, residues 122–199) and 10 mM ATP was incubated at RT for 0–30 minutes with SspH1 (residues 161–700, 0.5 μM) which had been pre-labelled with 6 or 7 at RT overnight.
Alternatively, substrate ubiquitination can be followed in vitro using a reconstituted ubiquitin enzymatic cascade, where recombinant ubiquitin, E1, E2, E3 and substrate are incubated with ATP (Fig. 4C). With SspH1, E3 ligase activity can then be observed by ubiquitination of its substrate PKN1.[25] This assay represents a higher order of complexity and involves three enzymes with catalytic cysteines (E1, E2 and E3) and is closer to in situ E3 activity. We compared SspH1 ubiquitination activity when SspH1 was pre-treated with DMSO or compound 6 or 7 (Fig. 4D), again overnight at room temperature to ensure complete labelling. […]

[1] = test system: human cell lysate (HEK293T); experiment: IA-DTB chemoproteomics, proteome-wide engagement in lysate; assay type: binding; conditions: engaged peptides log2 CR ≤−1, P-value ≤0.05 vs DMSO
Protocol: HEK293T lysate supplemented with recombinant SspH1 (161–700) and SspH2 (166–783) was treated with a dilution series […] of either compound 6 or 7 for four hours at RT. Following compound treatments, we used an iodoacetamide-desthiobiotin (IA-DTB) competitive chemoproteomics workflow to assess cysteine engagement.[52] Comparison of DMSO treated lysate with compound treated lysate enabled identification of peptides where IA-DTB labelling of cysteines was blocked due to fragment engagement (Fig. S5). […] Competition of the SspH2 C580 peptide occurred at lower concentrations compared to the SspH1 C492 peptide, which corroborated our previous kinetics experiments that both compounds label SspH2 faster than SspH1 (Fig. S4).
A pellet of 50 × 10^6 HEK293T cells was resuspended in 5 mL lysis buffer (50 mM HEPES pH 8.0, 150 mM NaCl, 1% IGEPAL, 0.1% SDS, 0.5% Na-deoxycholate, supplemented with protease inhibitor cocktail (Sigma-Aldrich, P8340)). The lysate was sonicated and centrifuged (10 min, 17 000 × g) and the soluble fraction isolated. Protein concentrations were measured using a Rapid BCA Gold Protein Assay Kit (Thermo Scientific, A53226) and diluted to 0.75 mg mL^−1 with lysis buffer. The lysate was then spiked with 0.2 μM of each recombinant SspH1 (aa 161–700) and SspH2 (aa 166–783). […]

SMILES | PKN1 ubiquitination (SspH1 (161–700)) | proteome-wide labelling in human cell lysate [1]
Cc1cc(-c2nc3ccccc3n2C2CCN(C(=O)CCl)CC2)cc(C)c1O.Cl [compound 6] | completely abrogated | promiscuous protein labellers
Cl.O=C(CCl)N1CCC(n2c(-c3ccc(C(F)(F)F)cc3)nc3ccccc32)CC1 [compound 7] | completely abrogated | promiscuous protein labellers
